Results reported in ChEMBL document CHEMBL3507680, “University of Dundee, Gates Library screen for HepG2 cell viability”.

Experiment: Human HepG2 cell viability assay in 384 well format
Type: toxicity, cell-based
Set-up: dose 125 nL, time 70.5 hour; concentration not given beside the values
Conditions: HepG2 cells, read-out: Inhibition

Row | SMILES | cytotoxicity at 70.5 h [%]
1 | Cc1nn(C)c(C)c1OCC(=O)NCc1cccc(C(=O)O)c1 | 3.51
2 | CCOCCc1nc(-c2cnn3c(C)cc(C)nc23)no1 | -107
3 | CC(=O)Nn1c(C)cc(CN2CCC(c3ccncc3)CC2)c1C | -2.26
4 | CN(C)C[C@@H]1OC[C@H]2CN(Cc3ccoc3)CC[C@H]21 | -0.512
5 | COC(=O)CC1CCCCN1CC(=O)Nc1cc(F)ccc1F (centres undefined) | -4.9
6 | c1coc(CN2CCCn3c(nnc3Cn3cccn3)C2)c1 | 3.11
7 | CS(=O)(=O)NC[C@H]1OC[C@@H]2CN(Cc3cccnc3)CC[C@@H]21 | -2.64
8 | c1ccc2c(N3CCCC3Cn3cccn3)ncnc2c1 (centres undefined) | 4.1
9 | COc1ccc(CCNC(=O)Cn2ncc3c2c(C)nn3C)cc1 | -12.7
10 | COC(=O)CN1CCC(C(=O)c2cc(F)ccc2F)CC1 | -3.39
11 | N[C@H]1CCCN(S(=O)(=O)c2ccc(C(=O)NCC(F)F)cc2)C1 | 25.2
12 | CCC(NC(=O)CNCC(F)(F)F)c1cc(F)ccc1F (centres undefined) | -6.5
13 | COCCN1CCCC(O)(CN2CCN(c3cnccn3)CC2)C1=O (centres undefined) | -3.08
14 | COc1cc(CNCC(O)c2cccc(F)c2)cc2c1OCO2 (centres undefined) | 1.4
15 | Cn1nnnc1SC1CCc2ccccc2NC1=O (centres undefined) | -24.7
16 | c1c(CN2CCCC2)nc2n1CCN(C1CCOCC1)C2 | -0.565
17 | Cc1nc(C)n(CC2CCCN(c3ncnc4c3CCC4)C2)n1 (centres undefined) | 26.1
18 | CC(C)(C)c1ncc(CNCC2CCCN2c2cccnn2)s1 (centres undefined) | 5.55
19 | CSCc1cc(F)ccc1CNC(=O)N1CCC(CO)CC1 | -0.781
20 | CC1CCCN(CCNC(=O)c2scnc2Cl)C1 (centres undefined) | -7.04
21 | COCCC1(C(=O)O)CCCN(C(=O)c2cnc3c(c2)CCCC3)C1 (centres undefined) | -14.8
22 | CN(C)C1(CNC(=O)c2c(O)cc(Cl)cc2Cl)CCOCC1 | -9.63
23 | COCc1cc(N2CCOC(c3ccc(Cl)cc3)C2)ncn1 (centres undefined) | -10.8

Row | SMILES | cytotoxicity at 70.5 h [%]
24 | CCc1ccc(C(N)c2cccc(S(C)(=O)=O)c2)cc1 (centres undefined) | -4.78
25 | CN(C)C(CNC(=O)c1cccc(-n2cnnn2)c1)c1ccccc1Cl (centres undefined) | -2.81
26 | O=C(NCc1ccncc1)N(Cc1ccc(F)cc1F)C1CC1 | -5.41
27 | O=C1CC2(CCSC2)C(=O)N1Cc1ncc(-c2ccccc2)o1 (centres undefined) | -2.34
28 | CNC(=O)c1sc(C(NC(=O)c2ccccc2)C2CC2)nc1C (centres undefined) | -4.95
29 | CCn1ncc2c1C(COCC1CC1)N(Cc1cnn(C)c1)CC2 (centres undefined) | -3.67
30 | Cc1n[nH]c(C)c1S(=O)(=O)N1CCC(Oc2cnccn2)CC1 | -2.37
31 | Cc1cnn(C2CCCN(C(=O)CCc3ccncc3)C2)c1 (centres undefined) | -0.811
32 | CCN(CC)C(C(=O)NCc1ccc(N2CCCC2)nc1)C(C)C (centres undefined) | 2.85
33 | CN(C)C(C(=O)NCc1cc(C(C)(C)C)n[nH]1)c1ccc(F)cc1 (centres undefined) | -4.44
34 | Cc1cc2nc(C(=O)NCc3cccnc3N(C)C)cc(C)n2n1 | 3.6
35 | O=C(c1coc(COc2cccc3cnccc23)n1)N1CCSCC1 | -5.09
36 | CC(C)Oc1ccc(C(=O)N2CCCC2c2cnn(C)c2)cn1 (centres undefined) | -3
37 | O=C1NC2(CCN(CCc3ccccc3)CC2)CC1c1ccccc1 (centres undefined) | -8.33
38 | CC(C1CC1)n1nccc1NC(=O)CN(C)C(=O)OC(C)(C)C (centres undefined) | 27.9
39 | Cn1c(SCc2noc(C(C)(C)C)n2)nnc1C1CCS(=O)(=O)C1 (centres undefined) | -7.06
40 | CCC(CC#N)n1ccc(C(F)(F)F)n1 (centres undefined) | 22.2
41 | Cc1nc(C)n(CC2CCCN(Cc3cccc(C(N)=O)c3)C2)n1 (centres undefined) | -1.85
42 | Cc1ccccc1CN(C)Cc1nc2c(cnn2C)c(=O)[nH]1 | -7.81
43 | Cc1c(CNC(=O)C2CCCCCN2C)oc2ccccc12 (centres undefined) | -0.804
44 | O=C(Cn1cc(Cl)cn1)N1CCNC1=O | 48.7
45 | CNC(=O)CCC(=O)N1CCOC(c2ccc3cc(OC)ccc3c2)C1 (centres undefined) | -3.11
46 | c1csc(-c2noc(C3CNC3)n2)c1 | -8.98

Row | SMILES | cytotoxicity at 70.5 h [%]
47 | CC(NCC(F)(F)F)c1ccc(S(C)(=O)=O)c(F)c1 (centres undefined) | 12.5
48 | CN(CCc1ccccc1)Cc1nc2c(cnn2C)c(=O)[nH]1 | -10.9
49 | Nc1cccc(C2CN(C(=O)CN3CCOCC3)CCO2)n1 (centres undefined) | -4.5
50 | Cc1noc(C)c1CN1CC[C@H]2C[C@@H](c3nccs3)O[C@@H]2C1 | -14.7
51 | COc1ccccc1NC(=O)NCc1cn[nH]c1 | -7.77
52 | CN(Cc1cc(Br)cn1C)C(=O)c1cccnc1 | -8.21
53 | Cc1ccc(-c2nc(CNC3CCc4ncnn4C3)co2)cc1 (centres undefined) | -9.15
54 | CCN1CC(C(=O)NC(C)(C)CNC(=O)OC(C)(C)C)CC1=O (centres undefined) | -8.18
55 | Cc1cccc(CN2CCc3nnc(CN4CCCC4=O)n3CC2)n1 | -16.9
56 | CC(C)c1cc(C(=O)N2C[C@@H](C)[C@](O)(C3CC3)C2)[nH]n1 | -5.59
57 | CCNC(=O)[C@@H]1C[C@H](NC(=O)c2ccccc2C#N)CN1CCCSC | -2.96
58 | O=C(NCC(F)(F)F)c1ccc(-n2cncn2)nn1 | 1.36
59 | CCOCC1CN(C(=O)C2=CCCC2)Cc2cnn(C)c21 (centres undefined) | -14.7
60 | O=C(c1ccncc1)N1CCC2(CC1)CC(Oc1cccnc1)CO2 (centres undefined) | -14.5
61 | O=C(O)c1ccccc1-c1ccc(CN2CCOCC2)cn1 | -7.9
62 | Cc1cccc(CNC(=O)c2cccnc2N)c1 | 18
63 | Cc1nc(CC(=O)N(C)C2CCCN(CCc3ccccc3)C2)cs1 (centres undefined) | -4.36
64 | COCc1cn([C@@H]2c3ccccc3C3(CCNCC3)[C@H]2O)nn1 | -6.38
65 | c1cncc(NCCNC2CCCNC2)c1 (centres undefined) | 2.18
66 | c1cnc(-c2nc(CN3CCOC(Cn4cncn4)C3)cs2)nc1 (centres undefined) | 11.7
67 | CN(Cc1ccccc1)C(=O)CCS(=O)(=O)c1ccc2c(c1)OCCO2 | -62.4
68 | Cc1ccccc1C(=O)N1C[C@@H](O)[C@H](N2CCOCC2)C1 | -3.66
69 | CC(=O)c1cccc(NC(=O)Cn2cnc(-c3cccs3)cc2=O)c1 | -1.2

Row | SMILES | cytotoxicity at 70.5 h [%]
70 | CCc1cnc2c(c1Nc1ccncc1)c(=O)n(C)c(=O)n2C | 20.3
71 | CN(C)c1ncc2c(n1)C1(CCN(Cc3ccccc3F)C1)COC2 (centres undefined) | -7.03
72 | COCC(=O)N1CC[C@H]2N(C)CC[C@@]2(C(=O)Nc2ccccc2)CC1 | -20
73 | c1ccc(-n2ccc(CNCC3CCCN3c3cccnn3)n2)cc1 (centres undefined) | 0.819
74 | Cc1cc(=O)n(C)cc1NC(=O)Cc1ccc(C(F)(F)F)cc1 | 0.135
75 | C[C@@H]1CN(Cc2nc(C(N)=O)no2)CC[C@@]1(O)C1CCOCC1 | -8.91
76 | c1ccc(CN2CCCC3(CCN(CC4CCCO4)CC3)C2)nc1 (centres undefined) | -9.93
77 | CSCCC(NC(N)=O)C(=O)NCc1c(C)nn(-c2ccccc2)c1C (centres undefined) | -4.27
78 | O=C(C1CCC1)N1CCCC(c2cccc(-n3ccnc3)n2)C1 (centres undefined) | -6.13
79 | COCCOC[C@]1(CNC(=O)c2ccc(OC)cc2)C[C@@H](O)[C@@H](O)C1 | -4.22
80 | COC(CNC(=O)CNC(=O)c1ccccc1)c1cccc(Cl)c1 (centres undefined) | -2.92
81 | COCc1nc(C(=O)N2CCCC2c2ccc(OC)cc2)cs1 (centres undefined) | -14.3
82 | CC(C)C(Sc1cccs1)C(=O)NCc1cccnc1 (centres undefined) | -14.6
83 | c1cnc2nc(N3CCCC3c3nnc4n3CCCCC4)ccc2n1 (centres undefined) | -4.33
84 | Cc1cccc(CNC(=O)C2CCC(=O)N(Cc3ccccc3F)C2)n1 (centres undefined) | -9.23
85 | O=C(N1CCOCC1)n1cnc2ccccc21 | -11.5
86 | CN(C)c1ncc(-c2cc(C(=O)N3CCCC3)n(CC3CC3)c2)cn1 | -11
87 | O=C(Cc1cccc(F)c1)N1C[C@H]2CN(Cc3cccnc3)C[C@H]2C1 | -12
88 | Cc1oncc1C(=O)N[C@@H]1CN(c2ncccn2)C[C@@H]2CCCO[C@@H]21 | -10.7
89 | CC(C)CN1CCN(C(=O)c2[nH]nnc2Nc2ccccc2F)CC1 | 8.05
90 | O=C(C(c1ccccc1)N1CCc2cncnc2C1)N1CCCCC1 (centres undefined) | 7.48
91 | Cc1cccc(-c2nccnc2C2CCCN(C)C2)c1C (centres undefined) | 18.2
92 | Cc1cccc(CN2C(=O)CCC23CCN(c2ccccn2)CC3)n1 | -9.61

Row | SMILES | cytotoxicity at 70.5 h [%]
93 | Cc1cc(F)ccc1S(=O)(=O)N1CCN(C)c2ccncc21 | 4.79
94 | CC1(C(=O)N2CCN(c3cnccn3)CC2)CNCCO1 (centres undefined) | 28.1
95 | O=C(NCC1(O)COCCN(Cc2ccc(O)cc2)C1)c1cnccn1 (centres undefined) | -9.12
96 | CC(C)CN1CC2(CCN(C(=O)C(O)c3cccc(Cl)c3)CC2)CC1=O (centres undefined) | 1.55
97 | Fc1cnc(N2C[C@@H](OCC3CCOCC3)[C@H]3OCCC[C@H]32)nc1 | -7.94
98 | CN(C)CCOc1cc(NC(=O)COCC(F)(F)F)ccn1 | -2.8
99 | O=C(c1cccs1)N1CC[C@@H](N2CCOCC2)[C@@H]1Cc1ccccc1 | -15.7
100 | Cc1cccc(C)c1CCNC(=O)N1CCCC2(C1)OCCO2 | -5.85
101 | CN(C(=O)Cn1nc(-c2ccc(F)cc2)ccc1=O)C1CCS(=O)(=O)C1 (centres undefined) | -0.171
102 | Cc1ccsc1CNC(=O)NC1CCCc2c1cnn2CCO (centres undefined) | -6.7
103 | CCc1ccc(CN(C/C=C/c2ccccc2)CCOC)nc1 | -2.77
104 | Cc1ccc(N2CC[C@@H]3CN(Cc4c[nH]cn4)C[C@@H]3C2)nn1 | 11
105 | CC(C)c1ncc2c(n1)CN(CC1CCCCO1)CC2 (centres undefined) | -2.55
106 | COC(=O)CC(NC(=O)c1cc(OC)c2c(c1)OCCO2)c1cccs1 (centres undefined) | -9.89
107 | COC(=O)c1cc(OC)ccc1NCC(=O)NCC(=O)N1CCCC1 | -17.6
108 | CN(C)C(=O)CNC(=O)c1ccc2ccc(N(C)CC3CC3)n2c1 | -12.4
109 | Cn1nccc1C1CCN(Cc2ccn(-c3ccccc3)n2)CC1 | -5.5
110 | CCN1CCN(C(=O)c2ccc(=O)n(C)c2)c2ccccc21 | -3.86
111 | Cc1ncsc1C(=O)NCCc1cccs1 | 2.38
112 | COCCOCC(=O)Nc1ccnn1-c1ccc(Cl)cc1 | -0.967
113 | CCN(CC)CC[C@H]1CN(C(=O)C2CCC2)CC[C@H]1CC(=O)O | 5.37
114 | c1ccc(-c2cc(CNCCN3CCOCC3)c3nnnn3c2)cc1 | -0.928
